Assay results: the NIST ThermoML archive (doi:10.1021/acs.jced.8b00521)

Assay: xn = mol fraction of the nth substance listed
Conditions: Liquid; for viscosity: Capillary tube (Ostwald / Ubbelohde) method; for mass density: Vibrating tube method

CCCCCCCC(=O)OCC [ethyl octanoate] + CCCCCCCCCCCC(=O)OC
Conditions	mass density [kg/m3]	viscosity [mPa·s]
303.15 K, 100 kPa, x2 = 0.1	859	1.41
303.15 K, 100 kPa, x2 = 0.1999	859	1.52
303.15 K, 100 kPa, x2 = 0.3001	859	1.61
303.15 K, 100 kPa, x2 = 0.4	860	1.71
303.15 K, 100 kPa, x2 = 0.4999	860	1.82
303.15 K, 100 kPa, x2 = 0.6001	860	1.96
303.15 K, 100 kPa, x2 = 0.6999	861	2.08
303.15 K, 100 kPa, x2 = 0.8001	861	2.19
303.15 K, 100 kPa, x2 = 0.9	862	2.32
303.15 K, 2940 kPa, x2 = 0.4999	862	1.9
303.15 K, 2960 kPa, x2 = 0.1	860	1.46
303.15 K, 2960 kPa, x2 = 0.3001	861	1.66
303.15 K, 2980 kPa, x2 = 0.1999	860	1.56
303.15 K, 2980 kPa, x2 = 0.4	861	1.75
303.15 K, 2990 kPa, x2 = 0.6001	862	2.05
303.15 K, 2990 kPa, x2 = 0.9	863	2.4
303.15 K, 3000 kPa, x2 = 0.8001	863	2.28
303.15 K, 3080 kPa, x2 = 0.6999	862	2.15
303.15 K, 5980 kPa, x2 = 0.8001	865	2.37
303.15 K, 6000 kPa, x2 = 0.4999	863	1.96
303.15 K, 6010 kPa, x2 = 0.1	861	1.51
303.15 K, 6020 kPa, x2 = 0.6001	864	2.12
303.15 K, 6030 kPa, x2 = 0.1999	862	1.6
303.15 K, 6040 kPa, x2 = 0.6999	864	2.24
303.15 K, 6060 kPa, x2 = 0.9	865	2.48
303.15 K, 6080 kPa, x2 = 0.3001	863	1.71
303.15 K, 6100 kPa, x2 = 0.4	863	1.82
303.15 K, 8950 kPa, x2 = 0.8001	867	2.44
303.15 K, 8980 kPa, x2 = 0.1999	863	1.66
303.15 K, 8980 kPa, x2 = 0.3001	864	1.78
303.15 K, 8990 kPa, x2 = 0.4	865	1.88
303.15 K, 8990 kPa, x2 = 0.9	868	2.56
303.15 K, 9030 kPa, x2 = 0.1	863	1.55
303.15 K, 9040 kPa, x2 = 0.6999	866	2.31
303.15 K, 9050 kPa, x2 = 0.6001	866	2.19
303.15 K, 9090 kPa, x2 = 0.4999	865	2.02
303.15 K, 11960 kPa, x2 = 0.6999	868	2.38
303.15 K, 11960 kPa, x2 = 0.8001	869	2.5
303.15 K, 11980 kPa, x2 = 0.1	864	1.59
303.15 K, 12000 kPa, x2 = 0.3001	866	1.83
303.15 K, 12010 kPa, x2 = 0.6001	867	2.24
303.15 K, 12020 kPa, x2 = 0.1999	865	1.7
303.15 K, 12020 kPa, x2 = 0.4999	867	2.08
303.15 K, 12030 kPa, x2 = 0.9	869	2.64
303.15 K, 12040 kPa, x2 = 0.4	866	1.94
303.15 K, 14940 kPa, x2 = 0.6001	869	2.3
303.15 K, 14970 kPa, x2 = 0.6999	870	2.44
303.15 K, 14970 kPa, x2 = 0.8001	870	2.56
303.15 K, 14980 kPa, x2 = 0.9	871	2.7
303.15 K, 15020 kPa, x2 = 0.1	866	1.64
303.15 K, 15040 kPa, x2 = 0.4999	868	2.13
303.15 K, 15070 kPa, x2 = 0.1999	867	1.75
303.15 K, 15070 kPa, x2 = 0.3001	867	1.88
303.15 K, 15080 kPa, x2 = 0.4	868	2
313.15 K, 100 kPa, x2 = 0.1	850	1.22
313.15 K, 100 kPa, x2 = 0.1999	850	1.31
313.15 K, 100 kPa, x2 = 0.3001	851	1.39
313.15 K, 100 kPa, x2 = 0.4	851	1.46
313.15 K, 100 kPa, x2 = 0.4999	851	1.55
313.15 K, 100 kPa, x2 = 0.6001	852	1.65
313.15 K, 100 kPa, x2 = 0.6999	852	1.75
313.15 K, 100 kPa, x2 = 0.8001	852	1.85
313.15 K, 100 kPa, x2 = 0.9	853	1.95
313.15 K, 2950 kPa, x2 = 0.6001	853	1.71
313.15 K, 2960 kPa, x2 = 0.8001	854	1.93
313.15 K, 2970 kPa, x2 = 0.6999	854	1.82
313.15 K, 2980 kPa, x2 = 0.1	851	1.25
313.15 K, 2980 kPa, x2 = 0.1999	852	1.34
313.15 K, 2990 kPa, x2 = 0.3001	852	1.43
313.15 K, 3030 kPa, x2 = 0.4	853	1.52
313.15 K, 3040 kPa, x2 = 0.4999	853	1.59
313.15 K, 3070 kPa, x2 = 0.9	855	2.03
313.15 K, 5960 kPa, x2 = 0.3001	854	1.48
313.15 K, 5990 kPa, x2 = 0.6999	856	1.89
313.15 K, 5990 kPa, x2 = 0.8001	856	1.99
313.15 K, 6000 kPa, x2 = 0.1	853	1.29
313.15 K, 6000 kPa, x2 = 0.1999	854	1.38
313.15 K, 6000 kPa, x2 = 0.6001	855	1.76
313.15 K, 6050 kPa, x2 = 0.4	854	1.56
313.15 K, 6090 kPa, x2 = 0.9	857	2.09
313.15 K, 6100 kPa, x2 = 0.4999	855	1.65
313.15 K, 8900 kPa, x2 = 0.1	855	1.33
313.15 K, 8900 kPa, x2 = 0.1999	855	1.42
313.15 K, 8960 kPa, x2 = 0.6999	858	1.93
313.15 K, 9000 kPa, x2 = 0.6001	857	1.81
313.15 K, 9010 kPa, x2 = 0.4	856	1.59
313.15 K, 9010 kPa, x2 = 0.9	859	2.15
313.15 K, 9030 kPa, x2 = 0.3001	855	1.52
313.15 K, 9030 kPa, x2 = 0.8001	858	2.06
313.15 K, 9050 kPa, x2 = 0.4999	857	1.7
313.15 K, 11910 kPa, x2 = 0.6001	859	1.87
313.15 K, 11950 kPa, x2 = 0.4	858	1.63
313.15 K, 11980 kPa, x2 = 0.3001	857	1.57
313.15 K, 12010 kPa, x2 = 0.1	856	1.37
313.15 K, 12010 kPa, x2 = 0.1999	856	1.47
313.15 K, 12010 kPa, x2 = 0.8001	860	2.11
313.15 K, 12020 kPa, x2 = 0.4999	858	1.74
313.15 K, 12070 kPa, x2 = 0.9	860	2.22
313.15 K, 12090 kPa, x2 = 0.6999	860	1.99
313.15 K, 14970 kPa, x2 = 0.8001	862	2.16
313.15 K, 14980 kPa, x2 = 0.6999	861	2.03
313.15 K, 15010 kPa, x2 = 0.6001	861	1.92
313.15 K, 15020 kPa, x2 = 0.3001	859	1.62
313.15 K, 15040 kPa, x2 = 0.4999	860	1.79
313.15 K, 15050 kPa, x2 = 0.1	858	1.41
313.15 K, 15050 kPa, x2 = 0.1999	858	1.51
313.15 K, 15050 kPa, x2 = 0.9	862	2.28
313.15 K, 15090 kPa, x2 = 0.4	859	1.69
323.15 K, 100 kPa, x2 = 0.1	841	1.03
323.15 K, 100 kPa, x2 = 0.1999	842	1.09
323.15 K, 100 kPa, x2 = 0.3001	842	1.13
323.15 K, 100 kPa, x2 = 0.4	843	1.19
323.15 K, 100 kPa, x2 = 0.4999	843	1.26
323.15 K, 100 kPa, x2 = 0.6001	843	1.33
323.15 K, 100 kPa, x2 = 0.6999	844	1.42
323.15 K, 100 kPa, x2 = 0.8001	844	1.51
323.15 K, 100 kPa, x2 = 0.9	844	1.61
323.15 K, 2930 kPa, x2 = 0.1	843	1.04
323.15 K, 2930 kPa, x2 = 0.1999	843	1.11
323.15 K, 2940 kPa, x2 = 0.3001	844	1.18
323.15 K, 2960 kPa, x2 = 0.6999	845	1.45
323.15 K, 2980 kPa, x2 = 0.6001	845	1.38
323.15 K, 3010 kPa, x2 = 0.4999	844	1.31
323.15 K, 3020 kPa, x2 = 0.4	844	1.24
323.15 K, 3020 kPa, x2 = 0.9	846	1.65
323.15 K, 3040 kPa, x2 = 0.8001	846	1.57
323.15 K, 6010 kPa, x2 = 0.8001	848	1.61
323.15 K, 6020 kPa, x2 = 0.3001	845	1.22
323.15 K, 6030 kPa, x2 = 0.4999	846	1.35
323.15 K, 6030 kPa, x2 = 0.6999	847	1.5
323.15 K, 6040 kPa, x2 = 0.6001	847	1.42
323.15 K, 6060 kPa, x2 = 0.1	844	1.08
323.15 K, 6060 kPa, x2 = 0.1999	845	1.15
323.15 K, 6080 kPa, x2 = 0.4	846	1.29
323.15 K, 6080 kPa, x2 = 0.9	849	1.7
323.15 K, 8930 kPa, x2 = 0.6999	849	1.56
323.15 K, 8980 kPa, x2 = 0.8001	850	1.67
323.15 K, 8980 kPa, x2 = 0.9	850	1.75
323.15 K, 9030 kPa, x2 = 0.6001	849	1.46
323.15 K, 9040 kPa, x2 = 0.1	846	1.11
323.15 K, 9070 kPa, x2 = 0.3001	847	1.26
323.15 K, 9070 kPa, x2 = 0.4999	848	1.39
323.15 K, 9090 kPa, x2 = 0.4	847	1.32
323.15 K, 9140 kPa, x2 = 0.1999	847	1.19
323.15 K, 11900 kPa, x2 = 0.4	849	1.36
323.15 K, 11960 kPa, x2 = 0.6001	850	1.5
323.15 K, 11970 kPa, x2 = 0.4999	850	1.43
323.15 K, 11990 kPa, x2 = 0.3001	849	1.29
323.15 K, 11990 kPa, x2 = 0.8001	852	1.72
323.15 K, 12000 kPa, x2 = 0.9	852	1.79
323.15 K, 12020 kPa, x2 = 0.1	847	1.14
323.15 K, 12020 kPa, x2 = 0.1999	848	1.22
323.15 K, 12060 kPa, x2 = 0.6999	851	1.6
323.15 K, 14960 kPa, x2 = 0.6001	852	1.55
323.15 K, 14960 kPa, x2 = 0.9	854	1.85
323.15 K, 14970 kPa, x2 = 0.8001	853	1.76
323.15 K, 14980 kPa, x2 = 0.6999	853	1.65
323.15 K, 14990 kPa, x2 = 0.1	849	1.18
323.15 K, 14990 kPa, x2 = 0.1999	850	1.26
323.15 K, 15010 kPa, x2 = 0.4	851	1.4
323.15 K, 15020 kPa, x2 = 0.3001	850	1.33
323.15 K, 15040 kPa, x2 = 0.4999	851	1.48
